# Read-outs that look alike come from different tables or passages of the source.
# Legend:
# [1] = system: Raphidocelis subcapitata; test: R. subcapitata reproduction (growth) inhibition test; type: cell-based; settings: for EC50 / EC50 R. subcapitata (with confidence interval 2.5–97.5%): 72 h, growth inhibition by cell counts; for EC50: read-out: EC50 R. subcapitata (with confidence interval 2.5–97.5%)
# Protocol: (§1) All tests were carried out in accordance with the OECD or ISO guidelines. In general the experimental part was divided into three main steps: (i) determination of the toxicity of the native forms of pharmaceuticals (their racemic mixtures), (ii) toxicity evaluation of the selected TPs of these pharmaceuticals, and (iii) preliminary toxicity assessment of the enantiomers of selected pharmaceuticals. For each assay, range-finding tests were conducted, in order to determine the range of concentrations for the definitive tests. The main tests were repeated three times in at least two parallel replicates, with a minimum of five concentrations for native forms of the selected pharmaceuticals (including their enantiomers). The exact number of replicates and concentrations tested was included in the description of each test. […] However, TPs were tested in a different manner; first, the tests were carried out at the limit concentration of 100 mg L^−1. […] Such approach was applied in order to observe the relative toxicity of the selected TP and its native form.
# (§2) Dose-response curves were fitted using a linear logistic or logistic model (the model giving the best fit was chosen) (https://cran.r-project.org/web/packages/drfit/drfit.pdf). The mathematic formulas applied for this purpose are presented and described in the Supplementary Material. The EC50 values were given since log EC50 is a model parameter in the logistic as well as in linear logistic model.
# Test organisms were provided from Algal Culture Collection (Universität Göttingen, Germany). […] The light-dark cycle was different from the OECD guidelines, and it was introduced to imitate natural growth conditions. In order to ensure that the algae are in the exponential growth phase when used to inoculate the test solutions, the stock culture was diluted three times a week. The test was carried out in 25 mL suspension cell culture flasks (Nunc) (working volume 10 mL). All operations were performed under sterile conditions. The initial cell concentration was 5 × 10^4 cells mL^−1. Eight different concentrations of every compound in three replicates and a minimum of six controls were used in each test. […] The test flasks were incubated on a shaker with a speed of approx. 75 rpm at the temperature and light conditions described above. Growth inhibition was calculated using the cell counts of the treated samples in relation to the untreated controls after 72 h of exposure. The cells were counted with the use of CASY TT Cell counter & analyzer.
# [2] = system: Lemna minor; test: L. minor growth inhibition test; settings: for EC50: 168 h, read-out: EC50 L. minor (with confidence interval 2.5–97.5%), growth rate inhibition by frond area, 7 days; for toxicity to L. minor: highest tested concentration (100 mg L^−1); for EC50 L. minor (with confidence interval 2.5–97.5%): growth rate inhibition by frond area, 7 days
# Protocol: as §1, §2
# One week before the assay, the inoculum cultures were prepared; eight healthy plants were placed into a new portion of the medium. Two days before the test, the plants were transferred to a fresh medium, in order to supplement nutrients and to eliminate plant metabolites. The experiments were performed in six-well plates under the conditions described above. The pH value of the Steinberg medium and all solutions was 5.5 (± 0.5). Every test included six different concentrations of compound and six controls in three replicates. The test started with one plant consisting of three fronds and the measured endpoint was the inhibition of growth rate determined by comparing the frond area (mm^2) for the treated plants and untreated controls.
# [3] = system: Daphnia magna; test: D. magna acute immobilization test; type: in vivo; settings: for EC50 / EC50 D. magna (with confidence interval 2.5–97.5%): immobilization, 48 h; for EC50: read-out: EC50 D. magna (with confidence interval 2.5–97.5%); for mortality at 100 µg/mL: concentration 100 mg L^−1; for mortality at 50 µg/mL: concentration 50 mg L^−1
# Protocol: as §1, §2
# Five pre-fed test organisms were incubated with the studied compounds diluted in 10 mL of test media in glass test vessels at 20 °C (± 1 °C) in darkness for 48 h. Each test consisted of a control and five different concentrations of the studied compound in four parallel replicates. In order to achieve a full dose-response relationship, the concentration series covered the range of 0–100% immobilization. The number of immobilized or dead organisms was checked after 24 and 48 h. The negative effect of exposure to the tested compounds was expressed by the number of immobilized organisms compared to the controls.
# [4] = system: Vibrio fischeri; test: microbe, parasite or virus in culture; type: cell-based; settings: for inhibition at 10 µg/mL: concentration 10 mg L^−1; for EC50 V. fischeri (with confidence interval 2.5–97.5%) / EC50: luminescence inhibition, 30 min, 15 °C; for EC50: 0.5 h, read-out: EC50 V. fischeri (with confidence interval 2.5–97.5%)
# Protocol: (§3) Stock solutions and dilutions were prepared in 2% NaCl in 0.02 M phosphate buffer, pH 7. The freeze-dried bacteria were rehydrated prior to testing in a reactivation solution. Culture suspensions and diluted samples were pre-incubated at 15 °C for 15 min. After the initial luminescence was measured, 0.5 mL of the culture suspension was mixed with the same volume of a diluted sample. The final bioluminescence was measured after 30 min. Incubation was kept at 15 °C (LUMIStox 300 meter, Dr. Lange GmbH, Berlin, Germany). The relative toxicity of the samples was expressed as a percentage of luminescence inhibition compared to the controls.
# as §3, with “m,” for “meter,”
# [5] = system: Arthrobacter globiformis; test: A. globiformis dehydrogenase inhibition test (version without soil); settings: read-out: EC50 A. globiformis
# Protocol: as §1
# The test strain was obtained from the German Collection of Microorganisms (DSMZ). A version of the test without soil was performed. Bacteria was grown in a sterile medium containing 10 g L^−1 peptone from casein, 5 g L^−1 yeast extract, 5 g L^−1 glucose, and 5 g L^−1 NaCl. For the test, the medium was diluted in a ratio of 1:3 in water. The inoculum was the bacteria in a log-growth phase. Cell density was adjusted to 1 × 10^8 cells mL^−1, which corresponds to an optical density (OD600nm) of 0.4. The test was performed in 24-well microplates. Each well contained 1 mL of solution of the tested compound in water and 1 mL of bacterial inoculum. Next, the plates were incubated for 2 h at 30 °C on a horizontal shaker with a speed of 100 rpm. To each well, a portion of 0.6 mL of the redox active dye resazurine (45 mg L^−1) dissolved in buffer was added. The microplates were further incubated for 1 h (30 °C, 100 rpm). To stop the reduction process, the plates were centrifuged at 3600g for 10 min. Aliquots (300 μl) of supernatant from each well were immediately transferred to the wells of a 96-well microplate in triplicates. Finally, the dehydrogenase activity was determined by measuring the formation of resorufin from resazurine using a fluorimeter ([…]). Dehydrogenase inhibition was calculated using Eq. 1.
# where FBTS is the measured fluorescence of the blank (medium) with the tested substance, FTS is the measured fluorescence of the sample, FBNC is the measured fluorescence of the blank, and FNC is the measured fluorescence of the negative control (with bacteria).
# [6] = Raphidocelis subcapitata, read-out: Growth inhibition of R. subcapitata
# [7] = Lemna minor, read-out: Growth inhibition of L. minor
# [8] = Aliivibrio fischeri, read-out: Luminescence inhibition
# [9] = Daphnia magna, read-out: Immobilization
# [10] = Raphidocelis subcapitata, concentration 100 mg L^−1, read-out: Growth inhibition of R. subcapitata
# [11] = Aliivibrio fischeri, concentration 100 mg L^−1, read-out: Luminescence inhibition
structure (smiles),measurement,setting,value
"CC(C)Cc1ccc([C@H](C)C(=O)O)cc1 [IBU Isomer S, S-ibuprofen]",EC50,[1]; Raphidocelis subcapitata,26.6 µg/mL
same,EC50,[2]; Lemna minor,26.3 µg/mL
same,EC50,[3]; Daphnia magna,63.1 µg/mL
"CC(=O)Nc1ccc(S(=O)(=O)Nc2cc(C)on2)cc1 [N4-SMZ, N^4-Acetylsulfamethoxazole]",inhibition at 5 µg/mL,[1]; [6],27%
same,inhibition at 3 µg/mL,[2]; [7],17%
same,toxic effect / risk to V. fischeri,[4],negligible
same,inhibition at 50 µg/mL,[4]; [8],8%
same,mortality at 40 µg/mL,[3]; [9],0%
"CC(C)NCC(O)COc1ccc(CC(=O)O)cc1 (stereo not drawn) [MET-ACID, Metoprolol acid]",inhibition at 100 µg/mL,[1]; [10],0%
same,inhibition at 100 µg/mL,[2]; [7],5%
same,toxicity to L. minor,[2],non-toxic
same,inhibition at 100 µg/mL,[4]; [11],0%
same,mortality at 100 µg/mL,[3]; Daphnia magna,0%
"CC(C)Cc1ccc(C(C)C(=O)O)cc1 (stereo not drawn) [IBU, Ibuprofen]",EC50,[5],> 100 µg/mL
same,EC50,[1]; Raphidocelis subcapitata,93.3 µg/mL
same,inhibition at 100 µg/mL,[1]; [10],52%
same,EC50,[2]; Lemna minor,13.2 µg/mL
same,inhibition at 15 µg/mL,[2]; [7],54%
same,inhibition at 10 µg/mL,[4]; [8],42%
same,mortality at 50 µg/mL,[3]; Daphnia magna,52%
same,EC50,[3]; Daphnia magna,50.1 µg/mL
"COc1ccc2cc([C@@H](C)C(=O)O)ccc2c1 (single isomer, unassigned) [NAP Isomer R, R-naproxen]",EC50 R. subcapitata (with confidence interval 2.5–97.5%),[1],21.08 (19.64–22.59) mg L^−1
same,EC50 L. minor (with confidence interval 2.5–97.5%),[2],22.37 (20.76–24.04) mg L^−1
same,EC50 V. fischeri (with confidence interval 2.5–97.5%),[4],7.53 (7.11–7.99) mg L^−1
same,EC50 D. magna (with confidence interval 2.5–97.5%),[3],97.35 (91.90–104.95) mg L^−1
"COCCc1ccc(OCC(O)CNC(C)C)cc1 (stereo not drawn) [MET, Metoprolol]",EC50,[5],> 100 µg/mL
same,EC50,[1]; Raphidocelis subcapitata,35.6 µg/mL
same,inhibition at 100 µg/mL,[1]; [10],90%
same,EC50,[2]; Lemna minor,> 100 µg/mL
same,inhibition at 100 µg/mL,[2]; [7],5%
same,EC50,[4]; Aliivibrio fischeri,> 100 µg/mL
same,inhibition at 100 µg/mL,[4]; [11],3%
same,mortality at 100 µg/mL,[3]; Daphnia magna,4%
same,EC50,[3]; Daphnia magna,> 100 µg/mL
"NC(=O)N1c2ccccc2C=Cc2ccccc21 [CRB, Carbamazepine]",EC50,[5],> 100 µg/mL
same,EC50,[1]; Raphidocelis subcapitata,> 100 µg/mL
same,inhibition at 100 µg/mL,[1]; [10],49%
same,Growth inhibition of R. subcapitata,[1]; concentration 100 mg L^−1,48%
same,EC50,[2]; Lemna minor,50.2 µg/mL
same,inhibition at 50 µg/mL,[2]; [7],49%
same,EC50,[4]; Aliivibrio fischeri,> 100 µg/mL
same,inhibition at 100 µg/mL,[4]; [11],42%
same,mortality at 100 µg/mL,[3]; Daphnia magna,24%
same,EC50,[3]; Daphnia magna,> 100 µg/mL
"COc1ccc2cc([C@H](C)C(=O)O)ccc2c1 (single isomer, unassigned) [NAP Isomer S, S-naproxen]",EC50 R. subcapitata (with confidence interval 2.5–97.5%),[1],27.80 (25.67–30.05) mg L^−1
same,EC50 L. minor (with confidence interval 2.5–97.5%),[2],29.14 (27.19–31.40) mg L^−1
same,EC50 V. fischeri (with confidence interval 2.5–97.5%),[4],20.60 (19.50–21.75) mg L^−1
same,EC50 D. magna (with confidence interval 2.5–97.5%),[3],68.76 (54.64–90.98) mg L^−1
"CC(Cc1ccc(C(C)C(=O)O)cc1)C(=O)O (stereo not drawn) [CBX-IBU, Carboxyibuprofen]",inhibition at 100 µg/mL,[1]; [10],14%
same,inhibition at 15 µg/mL,[2]; [7],6%
same,inhibition at 10 µg/mL,[4]; [8],2%
same,mortality at 50 µg/mL,[3]; Daphnia magna,8%
"CC(C)Cc1ccc([C@@H](C)C(=O)O)cc1 (single isomer, unassigned) [IBU Isomer R, R-ibuprofen]",EC50 R. subcapitata (with confidence interval 2.5–97.5%),[1],11.65 (10.21–13.26) mg L^−1
same,EC50 L. minor (with confidence interval 2.5–97.5%),[2],12.36 (10.80–14.07) mg L^−1
same,EC50 D. magna (with confidence interval 2.5–97.5%),[3],65.83 (59.54–72.54) mg L^−1
"NC(=O)N1c2ccccc2C2OC2c2ccccc21 (stereo not drawn) [CRB-Ep, Carbamazepine 10,11-epoxide]",inhibition at 100 µg/mL,[1]; [10],37%
same,inhibition at 50 µg/mL,[2]; [7],32%
same,inhibition at 100 µg/mL,[4]; [11],30%
same,mortality at 100 µg/mL,[3]; Daphnia magna,0%
"CC(C(=O)O)c1ccc(CC(C)(C)O)cc1 (stereo not drawn) [2-OH-IBU, 2-Hydroxyibuprofen]",inhibition at 100 µg/mL,[1]; [10],16%
same,inhibition at 15 µg/mL,[2]; [7],11%
same,inhibition at 10 µg/mL,[4]; [8],4%
same,mortality at 50 µg/mL,[3]; Daphnia magna,0%
"CC(C(=O)O)c1ccc2cc(O)ccc2c1 (stereo not drawn) [O-DES-NAP, O-Desmethylnaproxen]",inhibition at 25 µg/mL,"[4]; Aliivibrio fischeri, concentration 25 mg L^−1, read-out: Luminescence inhibition",20%
same,mortality at 70 µg/mL,"[3]; Daphnia magna, concentration 70 mg L^−1, read-out: Immobilization",0%
"CN(C)CC1CCCCC1(O)c1cccc(O)c1 (stereo not drawn) [O-DES-TRA, O-Desmethyltramadol]",inhibition at 100 µg/mL,[1]; [6],35%
same,inhibition at 100 µg/mL,[2]; [7],0%
same,toxicity to L. minor,[2],non-toxic
same,inhibition at 100 µg/mL,[4]; [8],0%
same,mortality at 70 µg/mL,[3]; [9],8%
"NC(=O)N1c2ccccc2CC(O)c2ccccc21 (stereo not drawn) [10-OH-CRB, 10,11-Dihydro-10-hydroxycarbamazepine]",inhibition at 100 µg/mL,[1]; [10],15%
same,inhibition at 50 µg/mL,[2]; [7],11%

# Source: article PMC7332481, “Ecotoxicity screening evaluation of selected pharmaceuticals and their transformation products towards various organisms” (Environmental Science and Pollution Research International, 2020)
